# What was measured:
# [1] = system: catecholamine release from permeabilized bovine chromaffin cells; assay type: cell-based; conditions: for IC50: read-out: concentration reaching 50% inhibitory activity (inhibition of Ca2+ dependent secretion); for effect on Ca2+ dependent (Ca2+-triggered) secretion: peptides at 100 μM concentration, FIG. 7A
# mouse neuron = experiment: Mouse neuron inhibition assay (Mehta, et al., 1996); assay type: cell-based
# Experimental: ii. 47% at 2 μM; 87% at 20 μM, as measured in the mouse neuron inhibition assay described in, for example, Mehta, et al., Proc. Natl. Acad. Sci. USA, 93:10471-10476, 1996 (incorporated herein for purposes of reference).
Substance,IC50 [1] [nM],effect on Ca2+ dependent (Ca2+-triggered) secretion [1],further results
170-EIDTQNRQIDRIMEKADSNK-189 [ESUP/E20h],1800,–,–
181-IMEKADSNKTRIDEANQRATKMLGSG-206 [ESUP/E26h],250,–,–
"187-SNKTRIDEANQRATKMLGSG-206 [ESUP/A20h, 20-mer peptide encompassing the C-terminal region of SNAP-25 (aa 187-206)]",12000,–,"Inhibitory Activity ([1]; at 100 μM peptide, bovine chromaffin cells): 65%; Inhibitory Activity (mouse neuron; at 2 μM peptide): 47%; Inhibitory Activity (mouse neuron; at 20 μM peptide): 87%"
"MLDEQGEQLER [SNAP-25(49-59), reference compound]",–,did not affect,–
"TDSSGREMIKANKQLANGTR [ESUP/20Ah^RD, control peptide with the same amino acid composition as ESUP/A20h but in random order, reference compound]",–,no effect,–

# — US6169074A, “Peptide inhibitors of neurotransmitter secretion by neuronal cells” (The Regents of the University of California, priority 1997, dated 2001)
